US7038047B2, “Substituted 6-(2-methoxyphenyl) triazolopyrimides as fungicides” (BASF Aktiengesellschaft, priority 2001, dated 2006)

Key:
[1] = tested on: cucumber mildew (Sphaerotheca fuliginea); assay: Protective action on cucumber mildew, cucumber seedlings; format: in vivo; settings: 250 ppm, inoculated 20 hours after spraying, assessed after 7 days, untreated plants infected to 90%
Source text: The active compounds, separately or together, were formulated as a 10% emulsion in a mixture of 70% by weight of cyclohexanone, 20% by weight of Nekanil® LN (Lutensol® AP6, wetting agent having emulsifying and dispersant action based on ethoxylated alkylphenols) and 10% by weight of Wettol® EM (nonionic emulsifier based on ethoxylated castor oil) and diluted with water to the desired concentration.
Leaves of pot grown cucumber seedlings of the “Chinesische Schlange” variety were sprayed to runoff with aqueous liquors made from a stock solution consisting of 10% of active ingredient, 85% of cyclohexanone, and 5% of emulsifier. 20 hours after the sprays-on layer had dried, the plants were inoculated with a aqueous spore suspension of cucumber mildew (Sphaerotheca fuliginea). The plants were then placed for 7 days in the greenhouse at 20 to 24° C. and a relative humidity of 60 to 80%. The extent of fungus spread was assessed as %-attack of the whole leaf surface.

[2] = tested on: Cercospora beticola; assay: Fungicidal control of leaf spot on beets (Cercospora beticola), protective spray on sugar beet seedlings; format: in vivo; settings: sugar beet seedlings ACH-31, sprayed before inoculation, untreated plants infected to 90%
Description: The active compounds, separately or together, were formulated as a 10% emulsion in a mixture of 70% by weight of cyclohexanone, 20% by weight of Nekanil® LN (Lutensol® AP6, wetting agent having emulsifying and dispersant action based on ethoxylated alkylphenols) and 10% by weight of Wettol® EM (nonionic emulsifier based on ethoxylated castor oil) and diluted with water to the desired concentration. Young sugar beet seedlings of the cultivar “ACH-31” were grown in pots to the 2 to 4 leaf stage. These plants were sprayed to runoff with an aqueous suspension, containing the concentration of active ingredient mentioned in the table below, prepared from a stock solution containing 5% of the active ingredient, 94% cyclohexanone and 1% emulsifier (Tween 20). After the plants had dried (3–5 h), they were inoculated with a spore suspension of Cercospora beticola in an aqueous solution of 0.5% gelatine. Then the trial plants were immediately transferred to a humid chamber with 18–23° C. and a relative humidity close to 100% and kept there for 5 days. For a period of further 10–14 days a cultivation in a greenhouse followed at 21–23° C. and a relative humidity about 95%. Then the extent of fungal attack on the leaves was visually assessed as % diseased leaf area.

Row | Compound | infection (%-attack of the whole leaf surface) [1] | infection (% diseased leaf area) ([2]; 50 ppm) | infection (% diseased leaf area) ([2]; 200 ppm)
1 | COc1cc(F)cc(F)c1-c1c(Cl)nc2ncnn2c1NC(C)C(F)(F)F (stereo not drawn) [I-38B, 5-chloro-6-(4,6-difluoro-2-methoxyphenyl)-7-(1,1,1-trifluoroprop-2-yl)amino-[1,2,4]-triazolo[1,5-α]pyrimidine] | no infection |  | 
2 | COc1cc(F)cc(F)c1-c1c(Cl)nc2ncnn2c1NC(C)C(F)(F)F (stereo not drawn) [I-38, 5-chloro-6-(4,6-difluoro-2-methoxyphenyl)-7-(1,1,1-trifluoroprop-2-yl)amino-[1,2,4]-triazolo[1,5-α]pyrimidine] |  | not more than 7% | not more than 7%
